The test system of assay [1] is IGF1-induced S6 phosphorylation. Put plainly: Growth factor induced S6 ribosomal protein phosphorylation in primary human fibroblasts. Format: cell-based. The note with it: normal human dermal fibroblasts (NHDF), stimulated with 10 nM IGF-1; read-out: Inhibition of IGF1-induced S6 phosphorylation IC50. As for the experimental part: Growth Factor Induced S6 Ribosomal Protein Phosphorylation in Primary Human Fibroblasts.
Phosphorylation of S6 ribosomal protein in response to growth factor stimulation of normal human dermal fibroblasts (NHDF) was used to assess compound potency in inhibiting IGF-1 induced signal transduction in cells, and selectivity towards EGF and PDGF stimulus. NHDF cells obtained from PromoCell (Heidelberg, Germany), were maintained at 37° C. in a humidified atmosphere with 5% CO2 in complete Fibroblast Growth Medium (PromoCell). For assay, NHDF were seeded in 384-well tissue culture plates (clear- and flat-bottomed black plates; Matrix Technologies Inc., Hudson, N.H., USA) at a density of 5000 cells/well in serum-free medium containing 0.1% bovine serum albumin (BSA) and incubated for 5 days. Starved cells were treated for 1 hour with desired doses of compounds and then stimulated for a further 2 hours with either 10 nM IGF-1 (Invitrogen Corp., CA, USA), 10 nM EGF (Gibco BRL, USA) or 1 nM PDGF-B/B (Roche Diagnostics GmbH, Germany). Cells were then fixed in PBS/3.7% paraformaldehyde for 20 minutes at room temperature, washed ×2 with PBS, and permeabilized with PBS/0.3% Triton X-100 for 15 minutes. Wells were then saturated with PBS/1% non-fat dry milk (Bio-Rad Laboratories, Hercules, Calif., USA) for 1 hour, and then probed for 1 hour at 37° C. with anti-phospho-S6 (Ser 235/236) antibody (Cell Signaling Technology, Beverly, Mass., USA, cat. #2211) at 1/200 dilution in PBS/1% milk/0.3% Tween 20. […] Fluorescence images in the DAPI and Cy5™ channels were automatically acquired, stored and analysed using a Cellomics ArrayScan™ IV instrument (Cellomics, Pittsburgh, USA); the Cellomics Cytotoxicity Algorithm was used to quantify cytoplasmic fluorescence associated with phospho-S6 (Cy5™ signal parameter: “Mean Lyso Mass-pH”) for each cell in 10 fields/well, and eventually expressed as a mean population value. […]

The target of assay [2] is T1, IGF1R (Homo sapiens, UniProt P08069). Briefly: Western blot analysis of receptor phosphorylation following stimulation with IGF-1 in MCF-7 human breast cancer cells. Format: cell-based. Further details: endogenous in cells; host or cells: MCF-7 (ATCC# HTB-22). The note with it: starved MCF-7 cells, increasing concentrations of compound prior to 10 nM IGF1. The procedure:
Cell-Based Assays for Inhibitors of IGF-1R Kinase Activity Western Blot Analysis of Receptor Phosphorylation Following Stimulation with IGF-1 in MCF-7 Human Breast Cancer Cells
MCF-7 cells (ATCC# HTB-22) were seeded in 12-well tissue culture plates at 2×10^5 cells/well in E-MEM medium (MEM+Earle's BSS+2 mM glutamine+0.1 mM non-essential amino acids)+10% FCS, and incubated overnight at 37° C., 5% CO2, 100% relative humidity. Cells were then starved by replacing E-MEM+10% FCS with E-MEM+0.1% BSA, and incubating overnight. After this incubation, wells were treated with desired concentrations of compound for 1 hour at 37° C., and were then stimulated with 10 nM recombinant human IGF-1 (Invitrogen, Carlsbad, Calif., USA) for 10 minutes at 37° C. […] Cell lysates were cleared by centrifugation at 10,000×g for 5 minutes, and 10 microg/lane of cleared lysate protein were run on NuPAGE gels (NuPAGE 4-12% 10-lane Bis-Tris gels, Invitrogen) with MOPS running buffer, then transferred onto Hybond-ECL nitrocellulose filters (Amersham Biosciences, Little Chalfont, Buckinghamshire, UK) using Mini PROTEAN II chambers (Bio-Rad Laboratories, Hercules, Calif., USA). […] In either case, filters were then washed for 30 minutes with several changes of TBS+0.15% Tween 20, and incubated for 1 hour in washing buffer containing 1/5000 dilution of horseradish peroxidase conjugated anti-rabbit IgG (Amersham, product #NA934), then were washed again and developed using the ECL chemiluminescence system (Amersham) according to manufacturer's recommendations. Unless otherwise stated, reagents used were from Sigma-Aldrich, St. Louis, Mo., USA.
For orientation: Immunoblotting shows a protein as a band on a membrane.
Target sequence in this assay (P08069 31-1367): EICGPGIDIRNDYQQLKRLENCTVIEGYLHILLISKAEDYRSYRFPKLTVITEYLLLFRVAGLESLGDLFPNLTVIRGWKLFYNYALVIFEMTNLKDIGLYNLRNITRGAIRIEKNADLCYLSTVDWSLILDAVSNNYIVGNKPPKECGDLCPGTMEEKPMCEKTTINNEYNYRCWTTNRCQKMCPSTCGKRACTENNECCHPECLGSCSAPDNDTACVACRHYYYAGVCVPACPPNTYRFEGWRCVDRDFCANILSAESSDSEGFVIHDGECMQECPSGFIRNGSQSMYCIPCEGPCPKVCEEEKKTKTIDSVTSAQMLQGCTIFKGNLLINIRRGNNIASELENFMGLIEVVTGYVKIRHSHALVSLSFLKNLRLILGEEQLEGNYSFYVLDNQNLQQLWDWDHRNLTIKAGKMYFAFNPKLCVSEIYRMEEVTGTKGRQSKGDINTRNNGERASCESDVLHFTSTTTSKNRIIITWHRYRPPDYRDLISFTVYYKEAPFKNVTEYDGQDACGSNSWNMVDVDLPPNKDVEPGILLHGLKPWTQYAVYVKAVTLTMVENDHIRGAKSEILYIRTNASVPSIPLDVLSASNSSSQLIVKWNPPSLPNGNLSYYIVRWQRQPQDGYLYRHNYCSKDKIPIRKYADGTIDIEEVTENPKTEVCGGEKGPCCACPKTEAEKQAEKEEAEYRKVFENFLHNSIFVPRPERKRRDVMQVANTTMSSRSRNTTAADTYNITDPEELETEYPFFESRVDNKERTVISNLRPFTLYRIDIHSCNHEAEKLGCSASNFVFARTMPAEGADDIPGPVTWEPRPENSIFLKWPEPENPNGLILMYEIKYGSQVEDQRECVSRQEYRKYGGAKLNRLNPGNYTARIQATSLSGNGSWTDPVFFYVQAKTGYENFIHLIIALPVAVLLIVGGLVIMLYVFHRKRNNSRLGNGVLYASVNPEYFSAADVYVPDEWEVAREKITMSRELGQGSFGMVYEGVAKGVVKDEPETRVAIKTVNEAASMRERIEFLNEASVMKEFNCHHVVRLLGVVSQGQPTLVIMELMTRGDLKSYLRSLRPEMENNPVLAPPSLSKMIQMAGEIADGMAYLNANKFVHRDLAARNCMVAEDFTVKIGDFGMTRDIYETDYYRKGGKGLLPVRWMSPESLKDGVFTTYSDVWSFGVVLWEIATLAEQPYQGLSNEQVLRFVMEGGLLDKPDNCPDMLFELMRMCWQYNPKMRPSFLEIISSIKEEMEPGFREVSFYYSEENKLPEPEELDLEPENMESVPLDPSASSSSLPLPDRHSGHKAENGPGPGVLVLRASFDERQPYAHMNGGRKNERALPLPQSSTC

In assay [3] the target is T1, IGF1R. Put plainly: Biochemical assay for inhibitors of IGF-1R kinase activity (trans-phosphorylation assay, robotized Dowex assay). Further details: amino acid residues 960-1367 of precursor protein; made in house; host or cells: H5 insect cells (baculovirus; virus made in Sf21 cells). As for the experimental part: ID NO: 2). […] The inhibitory activity of putative kinase inhibitors and the potency of selected compounds were determined using a trans-phosphorylation assay.
Target sequence in this assay (P08069 960-1367): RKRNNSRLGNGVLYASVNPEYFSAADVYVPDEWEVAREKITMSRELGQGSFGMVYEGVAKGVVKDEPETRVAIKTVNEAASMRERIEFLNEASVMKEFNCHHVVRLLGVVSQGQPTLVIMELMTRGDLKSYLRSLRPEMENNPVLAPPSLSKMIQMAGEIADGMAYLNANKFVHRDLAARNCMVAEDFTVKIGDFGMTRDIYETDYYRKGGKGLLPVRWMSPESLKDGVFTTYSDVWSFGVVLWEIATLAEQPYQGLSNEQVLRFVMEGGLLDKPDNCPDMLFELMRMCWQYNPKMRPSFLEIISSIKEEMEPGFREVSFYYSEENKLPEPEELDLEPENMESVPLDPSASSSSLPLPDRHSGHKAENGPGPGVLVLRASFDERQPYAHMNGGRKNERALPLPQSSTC

Where [4] appears, read: 6 nM enzyme, 6 microM ATP, 10 microM peptide substrate, read-out: IGF1R IC50 (μM) Biochemical assay.

Read-outs that look alike come from different tables or passages of the source.

Regarding `CN1CCN(c2ccc(C(=O)Nc3n[nH]c4c3CN(S(=O)(=O)c3cc(F)cc(F)c3)C4(C)C)c(NC(=O)c3cc[nH]c3)c2)CC1` [Compound 11, 1H-pyrrole-3-carboxylic acid [2-[5-(3,5-difluoro-benzenesulfonyl)-6,6-dimethyl-1,4,5,6-tetrahydro-pyrrolo[3,4-c]pyrazol-3-ylcarbamoyl]-5-(4-methyl-piperazin-1-yl)-phenyl]-amide], the IC50 – broadly, the concentration needed to halve the response being measured – in assay [1] was determined as 300 nM; against IGF1R [3], 0.09 µM. At IGF1R [2], the “inhibition of IGF1-induced IGF1R auto-phosphorylation (pIGF1R band, FIG. 1)” value (“inhibition” for short) is “inhibition of IGF1-induced IGF1R auto-phosphorylation”.
Take `CN1CCN(c2ccc(C(=O)Nc3n[nH]c4c3CN(S(=O)(=O)c3cc(F)cc(F)c3)C4(C)C)c(NC(=O)[C@@H]3CCCO3)c2)CC1` [Compound 1, (S)-Tetrahydro-furan-2-carboxylic acid [2-[5-(3,5-difluoro-benzenesulfonyl)-6,6-dimethyl-1,4,5,6-tetrahydro-pyrrolo[3,4-c]pyrazol-3-ylcarbamoyl]-5-(4-methyl-piperazin-1-yl)-phenyl]-amide]: the IC50 in assay [1] is 740 nM; at IGF1R [3] (setting [4]), 0.17 µM. Also, the “inhibition” value against IGF1R [2] was “inhibition of IGF1-induced IGF1R auto-phosphorylation”.
In the case of `CC(C)CNc1cc(N2CCN(C)CC2)ccc1C(=O)Nc1n[nH]c2c1CN(S(=O)(=O)c1cc(F)cc(F)c1)C2(C)C.Cl` [Compound 90, N-[5-(3,5-Difluoro-benzenesulfonyl)-6,6-dimethyl-1,4,5,6-tetrahydro-pyrrolo[3,4-c]pyrazol-3-yl]-2-isobutylamino-4-(4-methyl-piperazin-1-yl)-benzamide hydrochloride], the 50% inhibitory concentration (IC50) in assay [1] was determined as 5300 nM; at IGF1R [3] (setting [4]) it was 0.46 µM. The “inhibition” value against IGF1R [2] is listed as “inhibition of IGF1-induced IGF1R auto-phosphorylation”.

Values taken from patent US8461193B2, “Substituted pyrrolo-pyrazole derivatives active as kinase inhibitors” (Nerviano Medical Sciences S.R.L., priority 2005, dated 2013).
